Here are results for one compound from ChEMBL document CHEMBL3832026.

Type in all cases: ADME, organism-based
The nature of data set [1]: (§1) Mean pharmacokinetic parameters of Mycophenolic acid following single oral administration of Mycophenolic acid delayed-release tablets to adult or pediatric (age range 5 to 16 years) renal transplant patients on Cyclosporine, USP MODIFIED based immunosuppression. The following applies: human, in vivo. Also noted: dose 450 mg/m-2, dose 1 g, dose 720 mg, route oral.
The test system of data set [2] is Homo sapiens. The data set is described as §1. Further details: dose 450 mg/m-2, dose 1 g, dose 720 mg, route oral. To be noted: in vivo.
Data set [3] in a line: (§2) Mean pharmacokinetic parameters of Mycophenolic acid following multiple dose administration of 720 mg Mycophenolic acid delayed-release tablets to adult renal transplant patients on Cyclosporine, USP MODIFIED based immunosuppression. Also noted: dose 720 mg, route oral. The following applies: human, in vivo, po, 720 mg.
Data set [4] has as its system Homo sapiens. The data set is described as §2. Further details: dose 720 mg, route oral. The following applies: in vivo, po.
A short description of data set [5]: (§3) Pharmacokinetic parameters of Mycophenolic acid following administration of 360 to 2160 mg Mycophenolic acid delayed-release tablets to renal transplant patients on Cyclosporine, USP MODIFIED based immunosuppression. To be noted: human, in vivo, po.
The test system of data set [6] is Homo sapiens. The data set is described as §3. To be noted: in vivo, po.

Several values for one entry are separate records, joined by “and”; a condition that tells them apart may be missing. Identical values can stand only once.

For the compound `COc1c(C)c2c(c(O)c1C/C=C(\C)CCC(=O)O)C(=O)OC2` [MYCOPHENOLIC ACID], in data set [1], the highest level (Cmax) was 36300 ng/mL and the time to peak (Tmax) stood at 2.5 h. In data set [1] (dosed compound id 90, dosed compound name MYCOPHENOLATE MOFETIL, regimen Single dose, tissue Plasma, read-out: AUC(0-48)), the AUC was found to be 42700 ng·h/mL. Further, the AUC in data set [1] (read-out: AUC(0 to inf)) was 74300 ng·h/mL. For the same compound, in the data set with Homo sapiens [2], the “AUC(0 to inf)” value was 66500 ng·h/mL, the Cmax was determined as 26100 ng/mL and the Tmax amounted to 2 h. For the same compound, in the data set on Homo sapiens [2] (dosed compound id 90, dosed compound name MYCOPHENOLATE MOFETIL, regimen Single dose, tissue Plasma), the “AUC(0-48)” value was 48300 ng·h/mL. In addition, in data set [3], the Tmax turned out to be 2 h. Moreover, in the data set with Homo sapiens [4], the “AUC(0-12)” value was 57.4 mcg.hr/mL [middle of 6 runs]; the Cmax is 26.2 mcg/mL [middle of 5 runs]; the Tmax is 1.5 h and 2.5 h and 1.8 h. In data set [5], the CL/F is 140 mL/min. Besides, in the data set on Homo sapiens [6], the Vd worked out at 112 L and the Vss was 54 L.
